The text below walks through data of US4242350A, “Antisecretory thiadiazole derivatives, processes for their manufacture and pharmaceutical compositions containing them” (Imperial Chemical Industries Limited, priority 1978, dated 1980).

The nature of one data set: oral toxicity in rodents. It counts as in vivo. The settings on record: dosed orally to rodents at 300 mg/kg.
Another data set in a line: oral tolerance in dogs. It counts as in vivo. The settings on record: dogs dosed orally with 100 mg./kg. The source says:
No overt toxicity or side effects were noted during the dog tests.

Structures are written as SMILES.

On to `CNC(=NC#N)NCCSCc1nsc(NC(=N)N)n1` [3-[2-(2-cyano-3-methylguanidino)ethylthiomethyl]-5-guanidino-1,2,4-thiadiazole], for which the toxicity entry in the data set “oral toxicity in rodents” was “no toxicity”. Besides, the tolerance entry in the data set “oral tolerance in dogs” is reported as “well tolerated”.
